Data taken from ChEMBL document CHEMBL5325471, “Identification of new modulator of DNA repairing pathways based on natural product (±)-peharmaline A” (Bioorg Med Chem, 2023).
Calls of active or inactive are those of the source. The rule behind the calls is not given here.

Tests used:
[1] = tested on: HCT-116; experiment: Induction of cell cycle arrest in human HCT-116 cells assessed as accumulation of cells at S phase at 2 uM incubated for 24 hrs by RNase/PI staining-based FACS flow cytometry analysis (reference value: 11 %); type: functional
[2] = Volume of distribution in BALB/c mouse at 20 mg/kg, ip measured upto 24 hrs by LC-MS/MS analysis; type: ADME, organism-based; conditions: in vivo
[3] = Elimination half life in BALB/c mouse at 20 mg/kg, ip measured upto 24 hrs by LC-MS/MS analysis; type: ADME, organism-based; conditions: in vivo, read-out: beta t1/2 (converted)
[4] = tested on: HCT-116; experiment: Induction of DNA damage in human HCT-116 cell assessed as comet tail formation at 2 uM incubated for 24 hrs by EtBr-based alkaline Comet assay (Rvb= 2.99 %); type: functional
[5] = tested on: HCT-116; experiment: Induction of cell cycle arrest in human HCT-116 cells assessed as accumulation of cells at G1 phase at 2 uM incubated for 24 hrs by RNase/PI staining-based FACS flow cytometry analysis (reference value: 51 %); type: functional
[6] = tested on: HCT-116; experiment: Induction of cell cycle arrest in human HCT-116 cells assessed as accumulation of cells at S phase at 0.5 uM incubated for 24 hrs by RNase/PI staining-based FACS flow cytometry analysis (reference value: 11 %); type: functional
[7] = tested on: HCT-116; experiment: Inhibition of epithelial-to-mesenchymal transition in human HCT-116 cells assessed as downregulation of Snail-1 protein expression by immunoblot analysis; type: functional, cell-based
[8] = tested on: HCT-116; experiment: Inhibition of DNA repairing pathway in human HCT-116 cells assessed as downregulation of Rad51 protein expression at 0.25 to 2 uM incubated for 24 hrs by immunoblotting analysis; type: functional, cell-based; conditions: dose 0.25-2 µM
[9] = tested on: 4T1; experiment: Antitumor activity against mouse 4T1 cells implanted in BALB/c mouse assessed as reduction in tumor volume at 20 mg/kg, ip administered every alternate day for 2 weeks relative to control; type: functional; parameters: scale not given: the % may be the effect or the level left
[10] = tested on: HCT-116; experiment: Induction of DNA double-strand breaks in human HCT-116 cells assessed as increase in gammaH2AX accumulation at 0.25 to 2 uM incubated for 24 hrs by immunoblotting analysis; type: functional, cell-based; conditions: dose 0.25-2 µM
[11] = tested on: HCT-116; experiment: Inhibition of DNA repairing pathway in human HCT-116 cells assessed as downregulation of XRCC11 protein expression at 0.25 to 2 uM incubated for 24 hrs by immunoblotting analysis; type: functional, cell-based; conditions: dose 0.25-2 µM
[12] = Cytotoxicity against human fR2 cells assessed as cell growth inhibition incubated for 44 hrs by MTT assay; type: toxicity, cell-based
[13] = tested on: HCT-116; experiment: Induction of DNA damage in human HCT-116 cell assessed as increase in olive tail moment at 1 uM incubated for 24 hrs by EtBr-based alkaline Comet assay (Rvb= 0.26%); type: functional
[14] = tested on: HCT-116; experiment: Induction of cell cycle arrest in human HCT-116 cells assessed as accumulation of cells at G2 phase at 1 uM incubated for 24 hrs by RNase/PI staining-based FACS flow cytometry analysis (reference value: 33 %); type: functional
[15] = tested on: HCT-116; experiment: Induction of DNA damage in human HCT-116 cells assessed as micronuclei formation at 0.5 to 2 uM incubated for 24 hrs by DAPI staining based immunofluorescence analysis; type: functional, cell-based; conditions: dose 0.5-2 µM
[16] = tested on: HCT-116; experiment: Induction of DNA damage in human HCT-116 cell assessed as increase in olive tail moment at 2 uM incubated for 24 hrs by EtBr-based alkaline Comet assay (Rvb= 0.26%); type: functional
[17] = tested on: HCT-116; experiment: Induction of cell cycle arrest in human HCT-116 cells assessed as accumulation of cells at S phase at 1 uM incubated for 24 hrs by RNase/PI staining-based FACS flow cytometry analysis (reference value: 11 %); type: functional
[18] = tested on: PC-3; experiment: Antiproliferative activity against human PC-3 cells assessed as cell growth inhibition incubated for 44 hrs by MTT assay; type: functional, cell-based; conditions: PC-3, 44 h
[19] = tested on: A549; experiment: Antiproliferative activity against human A549 cells assessed as cell growth inhibition incubated for 44 hrs by MTT assay; type: functional, cell-based; conditions: A549, 44 h
[20] = tested on: HCT-116; experiment: Inhibition of epithelial-to-mesenchymal transition in human HCT-116 cells assessed as downregulation of Twist-1 protein expression by immunoblot analysis; type: functional, cell-based
[21] = tested on: HCT-116; experiment: Induction of cell cycle arrest in human HCT-116 cells assessed as accumulation of cells at G2 phase at 2 uM incubated for 24 hrs by RNase/PI staining-based FACS flow cytometry analysis (reference value: 33 %); type: functional
[22] = Cmax in BALB/c mouse at 20 mg/kg, ip measured upto 24 hrs by LC-MS/MS analysis; type: ADME, organism-based; parameters: dose 20 mg/kg, time < 24 hrs, route ip; conditions: in vivo
[23] = tested on: HCT-116; experiment: Induction of cell cycle arrest in human HCT-116 cells assessed as accumulation of cells at G2 phase at 0.5 uM incubated for 24 hrs by RNase/PI staining-based FACS flow cytometry analysis (reference value: 33 %); type: functional
[24] = Drug exposure in BALB/c mouse plasma at 20 mg/kg, ip measured upto 24 hrs by LC-MS/MS analysis; type: ADME, organism-based; parameters: dose 20 mg/kg, time < 24 hrs, route ip
[25] = tested on: HCT-116; experiment: Induction of cell cycle arrest in human HCT-116 cells assessed as accumulation of cells at G1 phase at 0.5 uM incubated for 24 hrs by RNase/PI staining-based FACS flow cytometry analysis (reference value: 51 %); type: functional
[26] = tested on: HCT-116; experiment: Antiproliferative activity against human HCT-116 cells assessed as cell growth inhibition incubated for 44 hrs by MTT assay; type: functional, cell-based; conditions: HCT-116, 44 h
[27] = tested on: HCT-116; experiment: Inhibition of DNA repairing pathway in human HCT-116 cells assessed as downregulation of MRE11 protein expression at 0.25 to 2 uM incubated for 24 hrs by immunoblotting analysis; type: functional, cell-based; conditions: dose 0.25-2 µM
[28] = Toxicity in BALB/c mouse implanted with mouse 4T1 cells at 20 mg/kg, ip administered every alternate day for 2 weeks; type: organism-based; conditions: in vivo, 336 h
[29] = Tmax in BALB/c mouse at 20 mg/kg, ip measured upto 24 hrs by LC-MS/MS analysis; type: ADME, organism-based; conditions: in vivo
[30] = tested on: HCT-116; experiment: Inhibition of DNA repairing pathway in human HCT-116 cells assessed as increase in p-Chk2 level at 0.25 to 2 uM incubated for 24 hrs by immunoblotting analysis; type: functional, cell-based; conditions: dose 0.25-2 µM
[31] = tested on: HCT-116; experiment: Inhibition of DNA repairing pathway in human HCT-116 cells assessed as downregulation of H2AX protein expression at 0.25 to 2 uM incubated for 24 hrs by immunoblotting analysis; type: functional, cell-based; conditions: dose 0.25-2 µM
[32] = AUC (0 to infinity) in BALB/c mouse at 20 mg/kg, ip measured upto 24 hrs by LC-MS/MS analysis; type: ADME, organism-based; parameters: dose 20 mg/kg, time < 24 hrs, route ip; conditions: in vivo
[33] = tested on: HCT-116; experiment: Inhibition of DNA repairing pathway in human HCT-116 cells assessed as increase in gamma-H2AX level at 0.25 to 2 uM incubated for 24 hrs by immunoblotting analysis; type: functional, cell-based; conditions: dose 0.25-2 µM
[34] = tested on: HCT-116; experiment: Induction of DNA damage in human HCT-116 cell assessed as increase in olive tail moment at 0.5 uM incubated for 24 hrs by EtBr-based alkaline Comet assay (Rvb= 0.26%); type: functional
[35] = tested on: HCT-116; experiment: Induction of DNA damage in human HCT-116 cell assessed as comet tail formation at 4 uM incubated for 24 hrs by EtBr-based alkaline Comet assay (Rvb= 2.99 %); type: functional

Work on `COC(=O)[C@]1([C@H]2CCn3c2nc2ccccc2c3=O)NCCc2c1[nH]c1ccccc21` (racemic) yielded an Activity [1] of 4%, a Vd [2] of 4.4 L/kg and a half-life [3] of 1.6 h. For the same compound, the Activity [4] was 51.03%, the Activity [5] was 74% and the Activity [6] was 7%. The inhibition [7] was “Active”, the inhibition [8] was “Active” and the Activity [9] was 89.3%. The Activity [10] was “Active”, the inhibition [11] was “Active” and the IC50 at 44 h [12] was 19.7 µM. For the same compound, the Activity [13] was 9.53%, the Activity [14] was 17% and the Activity [15] was “Active”. The Activity [16] was 14.05%, the Activity [17] was 7% and the IC50 [18] was 6.05 µM. For the same compound, the IC50 [19] was 1.68 µM, the inhibition [20] was “Active” and the Activity [21] was 21%. For the same compound, the Cmax [22] was 4490 ng/mL, the Activity [23] was 24% and the AUC at 24 h [24] was greater than 25 µM·h. The Activity [25] was 66%, the IC50 [26] was 1.02 µM and the inhibition [27] was “Active”. The Activity [28] was “Non-Toxic”, the Tmax [29] was 0.8 h and the inhibition [30] was “Active”. For the same compound, the inhibition [31] was “Active”, the AUC(0-inf) [32] was 11200 ng·h/mL and the inhibition [33] was “Active”. For the same compound, the Activity [34] was 5.21% and the Activity [35] was 61.4%.
